Data from patent US8106055B2, “Substituted amide compounds” (Gruenenthal GmbH, priority 2007, dated 2012).

Key:
[1] = target: T1, bradykinin 1 receptor (B1R) of the rat (Rattus norvegicus, UniProt P97583); assay: Functional investigation on the rat bradykinin 1 receptor (B1R), Ca2+ FLIPR assay in CHO K1 rB1R cells; assay type: cell-based; conditions: B1R antagonism rat; test substance 10 μM; Ca2+ FLIPR, CHO K1 rB1R cells
T1 construct: expressed in transfected cells; host or cells: CHO K1 cells
T1 sequence (P97583 1-337): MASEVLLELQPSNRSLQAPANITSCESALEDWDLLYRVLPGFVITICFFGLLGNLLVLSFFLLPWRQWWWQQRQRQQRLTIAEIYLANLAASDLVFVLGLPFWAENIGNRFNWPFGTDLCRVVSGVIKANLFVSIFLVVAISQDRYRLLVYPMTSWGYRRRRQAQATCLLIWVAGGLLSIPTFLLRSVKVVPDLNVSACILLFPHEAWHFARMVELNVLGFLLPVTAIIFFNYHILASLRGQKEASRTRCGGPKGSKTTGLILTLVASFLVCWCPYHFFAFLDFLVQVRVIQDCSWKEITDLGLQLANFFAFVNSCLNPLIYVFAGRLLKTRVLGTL
Outline: (§1)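 Stably transfected CHO K1 cells loaded with Fluo-4; FLIPR Ca2+ fluorescence peak (ex 488/em 540 nm). Compound added first (agonism vs Lys-Des-Arg9-bradykinin ≥50 nM human, Des-Arg9-bradykinin 10 μM rat), then after 10-20 min agonist at EC80; antagonism as % inhibition, IC50 from concentration series, n=2-3, N≥2.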

[2] = target: T2, human bradykinin 1 receptor (B1R) (Homo sapiens, UniProt P46663); assay: Functional investigation on the human bradykinin 1 receptor (B1R), Ca2+ FLIPR assay in CHO K1 hB1R cells; assay type: cell-based; conditions: B1R antagonism human; test substance 10 μM; Ca2+ FLIPR, CHO K1 hB1R cells
T2 construct: expressed in transfected cells; host or cells: CHO K1 cells
T2 sequence (P46663 1-353): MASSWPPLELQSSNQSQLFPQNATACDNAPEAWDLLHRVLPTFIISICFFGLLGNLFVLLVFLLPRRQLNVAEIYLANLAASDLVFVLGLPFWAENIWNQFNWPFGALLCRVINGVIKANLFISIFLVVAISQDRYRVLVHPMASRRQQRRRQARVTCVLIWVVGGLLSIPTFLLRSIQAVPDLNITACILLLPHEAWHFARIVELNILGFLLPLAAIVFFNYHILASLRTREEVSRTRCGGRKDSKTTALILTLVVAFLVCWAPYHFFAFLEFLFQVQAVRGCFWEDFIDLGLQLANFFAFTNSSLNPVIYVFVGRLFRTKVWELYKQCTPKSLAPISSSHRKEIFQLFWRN
Outline: as §1

Row | Compound | B1R Ant. r [10 μM] % Inhibition [1] [%] | B1R Ant. h [10 μM] % Inhibition [2] [%]
1 | COc1cc(C)c(S(=O)(=O)N(CCOCC(=O)NC2CCC(C(c3ccc(F)cc3)N(C)C)CC2)Cc2ccccc2)c(C)c1C (stereo not drawn) [Example 523] | 26 | 50
2 | COc1ccc(S(=O)(=O)N2CCCCC2COCC(=O)NCC2CCC(C(CCc3ccccc3)N(C)C)CC2)cc1 (stereo not drawn) [Example 469] | 87 | 91
3 | CN(C)C(c1ccc(F)cc1)C1CCC(NC(=O)COC2CCN(S(=O)(=O)c3ccccc3)C2)CC1 (stereo not drawn) [Example 463] | 17 | −7
4 | COc1cc(C)c(S(=O)(=O)N2CCC(OCC(=O)NCCC3CCC(C(c4ccc(F)cc4)N(C)C)CC3)CC2)c(C)c1C (stereo not drawn) [Example 480] | 4 | 23
5 | COc1cc(C)c(S(=O)(=O)N(C)CCOCC(=O)NCC2CCC(C(c3ccc(F)cc3)N(C)C)CC2)c(C)c1 (stereo not drawn) [Example 458] | 104 | 103
6 | COc1ccc(S(=O)(=O)N(C)CCOCC(=O)NCC2CCC(C(c3ccc(F)cc3)N(C)C)CC2)cc1OC (stereo not drawn) [Example 514] | 22 | −6
7 | CN(C)C(CCc1ccccc1)C1CCC(CNC(=O)COC2CCN(S(=O)(=O)c3ccc(Cl)cc3Cl)C2)CC1 (stereo not drawn) [Example 496] | 35 | 98
8 | COc1ccc(S(=O)(=O)N(C)CCOCC(=O)NCCC2CCC(C(c3ccc(F)cc3)N(C)C)CC2)cc1 (stereo not drawn) [Example 519] | 44 | 38
9 | COc1cc(C)c(S(=O)(=O)N(CCOCC(=O)NC2CCC(C(c3ccc(F)cc3)N(C)C)CC2)Cc2ccccc2)c(C)c1 (stereo not drawn) [Example 504] | 48 | 69
10 | CN(C)C(c1ccc(F)cc1)C1CCC(CCNC(=O)COC2CCN(S(=O)(=O)c3cccc(C(F)(F)F)c3)C2)CC1 (stereo not drawn) [Example 466] | 22 | 7
11 | COc1ccc(S(=O)(=O)N(C)CCOCC(=O)NCCC2CCC(C(c3ccc(Cl)cc3)N(C)C)CC2)cc1 (stereo not drawn) [Example 460] | 71 | 50
12 | COc1ccc(S(=O)(=O)N(C)CCOCC(=O)NCCC2CCC(C(c3ccc(F)cc3)N(C)C)CC2)cc1OC (stereo not drawn) [Example 484] | 19 | −21
13 | CN(C)C(c1ccc(F)cc1)C1CCC(NC(=O)COCCN2CCN(S(=O)(=O)c3ccccc3)CC2)CC1 (stereo not drawn) [Example 502] | 21 | −3
14 | CN(C)C(CCc1ccccc1)C1CCC(CNC(=O)COCCN(C)S(=O)(=O)c2ccc(Cl)cc2Cl)CC1 (stereo not drawn) [Example 513] | 40 | 100
15 | Cc1ccc(S(=O)(=O)N2CCC(OCC(=O)NCC3CCC(C(CCc4ccccc4)N(C)C)CC3)C2)cc1 (stereo not drawn) [Example 538] | 5 | 7
16 | COc1cc(C)c(S(=O)(=O)N(CCOCC(=O)NCC2CCC(C(c3ccc(F)cc3)N(C)C)CC2)Cc2ccccc2)c(C)c1 (stereo not drawn) [Example 494] | 36 | 86
17 | COc1cc(C)c(S(=O)(=O)N2CCN(CCOCC(=O)NCC3CCC(C(CCc4ccccc4)N(C)C)CC3)CC2)c(C)c1C (stereo not drawn) [Example 528] | 14 | 98
18 | CN(C)C(CCc1ccccc1)C1CCC(CNC(=O)COCCN(Cc2ccccc2)S(=O)(=O)c2ccccc2)CC1 (stereo not drawn) [Example 533] | 12 | 35
19 | COc1cc(C)c(S(=O)(=O)N2CCC(OCC(=O)NCCC3CCC(C(c4ccc(F)cc4)N(C)C)CC3)C2)c(C)c1C (stereo not drawn) [Example 467] | 47 | 67
20 | CN(C)C(c1ccc(F)cc1)C1CCC(CCNC(=O)COCCN(Cc2ccccc2)S(=O)(=O)c2ccccc2)CC1 (stereo not drawn) [Example 489] | 22 | 34
21 | CN(C)C(CCc1ccccc1)C1CCC(CNC(=O)COCCN(C)S(=O)(=O)c2ccc(F)cc2)CC1 (stereo not drawn) [Example 539] | 32 | 27

Row | Compound | B1R Ant. r [10 μM] % Inhibition [1] [%] | B1R Ant. h [10 μM] % Inhibition [2] [%]
22 | CN(C)C(c1ccc(F)cc1)C1CCC(CCNC(=O)COC2CCN(S(=O)(=O)c3ccccc3)C2)CC1 (stereo not drawn) [Example 530] | 27 | −18
23 | CN(C)C(c1ccc(F)cc1)C1CCC(CCNC(=O)COCCN(C)S(=O)(=O)c2ccc(F)cc2)CC1 (stereo not drawn) [Example 487] | 9 | 9
24 | CN(C)C(c1ccc(F)cc1)C1CCC(NC(=O)COCC2CCCN(S(=O)(=O)c3ccccc3)C2)CC1 (stereo not drawn) [Example 478] | 23 | −3
25 | COc1cc(C)c(S(=O)(=O)N2CCC(OCC(=O)NCCC3CCC(C(c4ccc(F)cc4)N(C)C)CC3)C2)c(C)c1 (stereo not drawn) [Example 509] | 94 | 104
26 | Cc1cc(C)c(S(=O)(=O)N(C)CCOCC(=O)NC2CCC(C(c3ccc(F)cc3)N(C)C)CC2)c(C)c1 (stereo not drawn) [Example 490] | 12 | 45
27 | COc1ccc(S(=O)(=O)N2CCC(OCC(=O)NCC3CCC(C(c4ccc(F)cc4)N(C)C)CC3)C2)cc1OC (stereo not drawn) [Example 497] | 17 | −4
28 | Cc1ccc(S(=O)(=O)N2CCC(OCC(=O)NCCC3CCC(C(c4ccc(F)cc4)N(C)C)CC3)C2)cc1 (stereo not drawn) [Example 491] | 16 | 5
29 | COc1cc(C)c(S(=O)(=O)N2CCC(OCC(=O)NCC3CCC(C(c4ccc(Cl)cc4)N(C)C)CC3)CC2)c(C)c1C (stereo not drawn) [Example 498] | 2 | 17
30 | CN(C)C(c1ccc(F)cc1)C1CCC(CNC(=O)COC2CCCN(S(=O)(=O)c3ccccc3)C2)CC1 (stereo not drawn) [Example 488] | −6 | 4
31 | Cc1cc(C)c(S(=O)(=O)N2CCC(OCC(=O)NCC3CCC(C(CCc4ccccc4)N(C)C)CC3)C2)c(C)c1 (stereo not drawn) [Example 475] | 40 | 103
32 | COc1cc(C)c(S(=O)(=O)N2CCC(OCC(=O)NCCC3CCC(C(c4ccc(Cl)cc4)N(C)C)CC3)C2)c(C)c1 (stereo not drawn) [Example 492] | 78 | 105
33 | CN(C)C(c1ccccc1)C1CCC(CNC(=O)COCCC2CCN(S(=O)(=O)c3ccccc3)CC2)CC1 (stereo not drawn) [Example 507] | 3 | −19
34 | Cc1cc(C)c(S(=O)(=O)N2CCC(OCC(=O)NCCC3CCC(C(c4ccc(Cl)cc4)N(C)C)CC3)C2)c(C)c1 (stereo not drawn) [Example 506] | 23 | 83
35 | CN(C)C(c1ccc(F)cc1)C1CCC(CCNC(=O)COCCN2CCN(S(=O)(=O)c3ccccc3)CC2)CC1 (stereo not drawn) [Example 493] | 4 | −13
36 | Cc1ccc(S(=O)(=O)N(C)CCOCC(=O)NCCC2CCC(C(c3ccc(F)cc3)N(C)C)CC2)cc1 (stereo not drawn) [Example 457] | 11 | 14
37 | CN(C)C(c1ccc(F)cc1)C1CCC(CCNC(=O)COC2CCCN(S(=O)(=O)c3ccccc3)C2)CC1 (stereo not drawn) [Example 520] | 24 | −4
38 | COc1cc(C)c(S(=O)(=O)N(CCOCC(=O)NCC2CCC(C(CCc3ccccc3)N(C)C)CC2)Cc2ccccc2)c(C)c1 (stereo not drawn) [Example 542] | 45 | 103
39 | CN(C)C(c1ccc(F)cc1)C1CCC(CNC(=O)COC2CCN(S(=O)(=O)c3ccc(Cl)cc3)C2)CC1 (stereo not drawn) [Example 517] | 38 | −13
40 | COc1cc(C)c(S(=O)(=O)N2CCC(OCC(=O)NCC3CCC(C(c4ccc(F)cc4)N(C)C)CC3)C2)c(C)c1 (stereo not drawn) [Example 541] | 104 | 100
41 | Cc1ccc(S(=O)(=O)N(C)CCOCC(=O)NCC2CCC(C(CCc3ccccc3)N(C)C)CC2)cc1 (stereo not drawn) [Example 452] | 18 | 37
42 | COc1cc(C)c(S(=O)(=O)N2CCC(CCOCC(=O)NCCC3CCC(C(c4ccc(F)cc4)N(C)C)CC3)CC2)c(C)c1C (stereo not drawn) [Example 510] | 27 | 15
